{"source": "ChEMBL document CHEMBL5346962", "about": "“Discovery of Sulanemadlin (ALRN-6924), the First Cell-Permeating, Stabilized α-Helical Peptide in Clinical Development” (J Med Chem, 2023)", "test_system": "SJSA-1", "assay": "Cytotoxicity against human SJSA-1 cells incubated for 72 hrs in presence of 10% FBS by MTT assay", "conditions": "SJSA-1, 72 h", "note": "Bridge positions count the residues as written; N and C are the ends. Square brackets hold non-standard residues; d marks the D form. Peptide text beside a SMILES is read from it. R8 = C=CCCCCCC[C@@](C)(N)C(=O)O; S5 = C=CCCC[C@](C)(N)C(=O)O"}
{"smiles": "CC(=O)N[C@@H](CC(C)C)C(=O)N[C@H](C(=O)N[C@@H](Cc1ccccc1)C(=O)N[C@]1(C)CCCCCC/C=C\\CCC[C@@](C)(C(=O)N[C@@H](C)C(=O)N[C@@H](C)C(=O)N[C@@H](C)C(=O)O)NC(=O)[C@H](CC(C)C)NC(=O)[C@H](CCC(N)=O)NC(=O)[C@H](C)NC(=O)[C@H](Cc2c[nH]c3ccccc23)NC(=O)[C@H](Cc2ccc(O)cc2)NC(=O)[C@H](CCC(=O)O)NC1=O)[C@@H](C)O", "note": "(Ac-LTF[R8]EYWAQL[S5]AAA-OH; staple (Z) 4-11)", "values": [{"measurement": "EC50", "value": 2500, "unit": "nM"}]}
